{"source": "paper PMC6397271", "about": "(Scientific Reports, 2019)", "assay_in_all_cases": "microbe, parasite or virus in culture", "key": {"S. aureus MRSA 12673": {"test_system": "S. aureus MRSA 12673", "type": "cell-based, Staphylococcus aureus", "conditions": "for MIC: raw MIC", "from_the_text": "(§1) Three bacterial strains of MRSA (N315, 12673, 6347) and two of Enterococcus spp. (E. faecium, E. faecalis) were used. With respect to MRSA, N315 represented a reference Van-susceptible strain (GenBank GCA_00000645.1) isolated from a patient while 12673 (Van-intermediately susceptible) and 6347 (a h-VISA which appears at frequency of <10^−5 to 10^−6 is composed of two subpopulations of bacteria: one susceptible and one intermediately resistant)[38] were clinical strains obtained from patients of The Clinical University Centre of Gdańsk (UCK). […] The clinical strain isolates originated from the collection of the Department of Pharmaceutical Technology and Biochemistry, Faculty of Chemistry, Gdańsk University of Technology.\n(§2) The strains were grown in Mueller-Hinton broth (MH cation-adjusted, Becton Dickinson) or Brain Heart Infusion broth (BHI, Becton Dickinson), respectively. The cultivation was carried out in an aerobic atmosphere at 37 °C for 24 hours and, afterwards, the bacterial cultures were diluted in geometric progression with a proper broth. Next, 100 µl of each dilution was inoculated in an agar plate and incubated at 37 °C for 24 h. The next procedures included determination of Colony Forming Units (CFU)/ml and minimal inhibitory concentration (MIC) of the compounds in question. The latter procedure was carried out according to the microbroth dilution technique using 96-well plates. The MICs were evaluated by using the metabolic assay based on the resazurin dye. The assay was performed in triplicates."}, "S. aureus MRSA N315": {"test_system": "S. aureus MRSA N315", "type": "cell-based, Staphylococcus aureus", "conditions": "for MIC: raw MIC", "from_the_text": "as §1, §2"}, "[1]": {"test_system": "S. aureus MRSA hetero-VISA 6347", "type": "cell-based, Staphylococcus aureus", "conditions": "for MIC: raw MIC", "from_the_text": "as §1, §2"}, "[2]": {"test_system": "Enterococcus faecalis 3937158", "type": "cell-based", "from_the_text": "as §1, §2"}, "[3]": {"test_system": "Enterococcus faecium 3934825", "type": "cell-based", "conditions": "for MIC: raw MIC", "from_the_text": "as §1, §2"}, "[4]": {"conditions": "first block, test a, repetition 1, read-out: MIC1a"}, "[5]": {"conditions": "first block, test a, repetition 2, read-out: MIC2a"}, "[6]": {"conditions": "first block, test a, repetition 3, read-out: MIC3a"}, "[7]": {"conditions": "first block, test b, repetition 1, read-out: MIC1b"}, "[8]": {"conditions": "first block, test b, repetition 2, read-out: MIC2b"}, "[9]": {"conditions": "first block, test b, repetition 3, read-out: MIC3b"}, "[10]": {"conditions": "test a, repetition 1, read-out: MIC1a"}, "[11]": {"conditions": "test a, repetition 2, read-out: MIC2a"}, "[12]": {"conditions": "test a, repetition 3, read-out: MIC3a"}, "[13]": {"conditions": "test b, repetition 1, read-out: MIC1b"}, "[14]": {"conditions": "test b, repetition 2, read-out: MIC2b"}, "[15]": {"conditions": "test b, repetition 3, read-out: MIC3b"}, "[16]": {"conditions": "same test as μM value, mean ± SD"}}, "note": "Read-outs that look alike come from different tables or passages of the source.", "data": [{"smiles": "CC[C@H](C)[C@H](NC(=O)[C@H](CCCCN)NC(=O)[C@H](CCCCN)NC(=O)[C@H](C)NC(=O)[C@H](CC(C)C)NC(=O)[C@H](C)NC(=O)[C@H](C)NC(=O)[C@H](CC(C)C)NC(=O)[C@H](C)NC(=O)[C@H](CCCCN)NC(=O)[C@H](CC(C)C)NC(=O)[C@H](CC(N)=O)NC(=O)[C@@H](NC(=O)[C@H](CCCCN)NC(=O)CNC(=O)[C@H](CC(C)C)NC(=O)[C@H](CC(C)C)NC(=O)[C@H](Cc1ccc(O)cc1)NC(=O)CNC(=O)[C@H](C)N)[C@@H](C)CC)C(=O)N[C@@H](CC(C)C)C(=O)N[C@@H](Cc1cn(CCOCCOCCOCCOCCC(=O)N[C@@]2(C)C[C@H](O[C@H]3[C@H](Oc4c5cc6cc4Oc4ccc(cc4Cl)[C@@H](O)[C@@H](NC(=O)[C@@H](CC(C)C)NC)C(=O)N[C@@H](CC(N)=O)C(=O)N[C@H]6C(=O)N[C@H]4C(=O)N[C@H](C(=O)N[C@H](C(=O)O)c6cc(O)cc(O)c6-c6cc4ccc6O)[C@H](O)c4ccc(c(Cl)c4)O5)O[C@H](CO)[C@@H](O)[C@@H]3O)O[C@@H](C)[C@H]2O)nn1)C(N)=O", "note": "[conjugate III, TP10-Ala(PEG4-Van)]", "values": [{"measurement": "MIC", "setting": "S. aureus MRSA 12673; [4]", "value": 0.78, "unit": "µM"}, {"measurement": "MIC", "setting": "S. aureus MRSA 12673; [5]", "value": 1.56, "unit": "µM"}, {"measurement": "MIC", "setting": "S. aureus MRSA 12673; [6]", "value": 0.78, "unit": "µM"}, {"measurement": "MIC", "setting": "S. aureus MRSA 12673; [7]", "value": 0.78, "unit": "µM"}, {"measurement": "MIC", "setting": "S. aureus MRSA 12673; [8]", "value": 1.56, "unit": "µM"}, {"measurement": "MIC", "setting": "S. aureus MRSA 12673; [9]", "value": 0.78, "unit": "µM"}, {"measurement": "MIC", "setting": "S. aureus MRSA 12673; [10]", "value": 3.12, "unit": "µM"}, {"measurement": "MIC", "setting": "S. aureus MRSA 12673; [11]", "value": 6.24, "unit": "µM"}, {"measurement": "MIC", "setting": "S. aureus MRSA 12673; [12]", "value": 3.12, "unit": "µM"}, {"measurement": "MIC", "setting": "S. aureus MRSA 12673; [13]", "value": 3.12, "unit": "µM"}, {"measurement": "MIC", "setting": "S. aureus MRSA 12673; [14]", "value": 6.24, "unit": "µM"}, {"measurement": "MIC", "setting": "S. aureus MRSA 12673; [15]", "value": 3.12, "unit": "µM"}, {"measurement": "MIC in (μg/ml)", "setting": "S. aureus MRSA 12673; [16]", "value": "3.1 ± 1.6", "unit": "µg/mL"}, {"measurement": "MIC", "setting": "S. aureus MRSA N315; [4]", "value": 12.5, "unit": "µM"}, {"measurement": "MIC", "setting": "S. aureus MRSA N315; [5]", "value": 6.25, "unit": "µM"}, {"measurement": "MIC", "setting": "S. aureus MRSA N315; [6]", "value": 12.5, "unit": "µM"}, {"measurement": "MIC", "setting": "S. aureus MRSA N315; [7]", "value": 12.5, "unit": "µM"}, {"measurement": "MIC", "setting": "S. aureus MRSA N315; [8]", "value": 12.5, "unit": "µM"}, {"measurement": "MIC", "setting": "S. aureus MRSA N315; [9]", "value": 6.25, "unit": "µM"}, {"measurement": "MIC", "setting": "S. aureus MRSA N315; [10]", "value": 50.01, "unit": "µM"}, {"measurement": "MIC", "setting": "S. aureus MRSA N315; [11]", "value": 25.01, "unit": "µM"}, {"measurement": "MIC", "setting": "S. aureus MRSA N315; [12]", "value": 50.01, "unit": "µM"}, {"measurement": "MIC", "setting": "S. aureus MRSA N315; [13]", "value": 50.01, "unit": "µM"}, {"measurement": "MIC", "setting": "S. aureus MRSA N315; [14]", "value": 50.01, "unit": "µM"}, {"measurement": "MIC", "setting": "S. aureus MRSA N315; [15]", "value": 25.01, "unit": "µM"}, {"measurement": "MIC in (μg/ml)", "setting": "S. aureus MRSA N315; [16]", "value": "50.0 ± 12.9", "unit": "µg/mL"}, {"measurement": "MIC", "setting": "[1]; [4]", "value": 1.6, "unit": "µM"}, {"measurement": "MIC", "setting": "[1]; [5]", "value": 0.78, "unit": "µM"}, {"measurement": "MIC", "setting": "[1]; [6]", "value": 0.78, "unit": "µM"}, {"measurement": "MIC", "setting": "[1]; [7]", "value": 1.6, "unit": "µM"}, {"measurement": "MIC", "setting": "[1]; [8]", "value": 1.6, "unit": "µM"}, {"measurement": "MIC", "setting": "[1]; [9]", "value": 1.6, "unit": "µM"}, {"measurement": "MIC", "setting": "[1]; [10]", "value": 6.4, "unit": "µM"}, {"measurement": "MIC", "setting": "[1]; [11]", "value": 3.2, "unit": "µM"}, {"measurement": "MIC", "setting": "[1]; [12]", "value": 3.2, "unit": "µM"}, {"measurement": "MIC", "setting": "[1]; [13]", "value": 6.4, "unit": "µM"}, {"measurement": "MIC", "setting": "[1]; [14]", "value": 6.4, "unit": "µM"}, {"measurement": "MIC", "setting": "[1]; [15]", "value": 6.4, "unit": "µM"}, {"measurement": "MIC in (μg/ml)", "setting": "[1]; [16]", "value": "6.4 ± 1.7", "unit": "µg/mL"}, {"measurement": "MIC", "setting": "[2]; microbroth dilution, 96-well, resazurin, 37 °C, 24 h, mean ± SD, at least three independent experiments in triplicates", "value": "25.0 ± 5.1", "unit": "µM"}, {"measurement": "MIC", "setting": "[2]; raw MIC, first block, test a, repetition 1, read-out: MIC1a", "value": 25, "unit": "µM"}, {"measurement": "MIC", "setting": "[2]; raw MIC, first block, test a, repetition 2, read-out: MIC2a", "value": 25, "unit": "µM"}, {"measurement": "MIC", "setting": "[2]; raw MIC, first block, test a, repetition 3, read-out: MIC3a", "value": 25, "unit": "µM"}, {"measurement": "MIC", "setting": "[2]; raw MIC, first block, test b, repetition 1, read-out: MIC1b", "value": 12.5, "unit": "µM"}, {"measurement": "MIC", "setting": "[2]; raw MIC, first block, test b, repetition 2, read-out: MIC2b", "value": 25, "unit": "µM"}, {"measurement": "MIC", "setting": "[2]; raw MIC, first block, test b, repetition 3, read-out: MIC3b", "value": 25, "unit": "µM"}, {"measurement": "MIC", "setting": "[2]; raw MIC, test a, repetition 1, read-out: MIC1a", "value": 100.02, "unit": "µM"}, {"measurement": "MIC", "setting": "[2]; raw MIC, test a, repetition 2, read-out: MIC2a", "value": 100.02, "unit": "µM"}, {"measurement": "MIC", "setting": "[2]; raw MIC, test a, repetition 3, read-out: MIC3a", "value": 100.02, "unit": "µM"}, {"measurement": "MIC", "setting": "[2]; raw MIC, test b, repetition 1, read-out: MIC1b", "value": 50.01, "unit": "µM"}, {"measurement": "MIC", "setting": "[2]; raw MIC, test b, repetition 2, read-out: MIC2b", "value": 100.02, "unit": "µM"}, {"measurement": "MIC", "setting": "[2]; raw MIC, test b, repetition 3, read-out: MIC3b", "value": 100.02, "unit": "µM"}, {"measurement": "MIC in (μg/ml)", "setting": "[2]; [16]", "value": "100.0 ± 20.4", "unit": "µg/mL"}, {"measurement": "MIC", "setting": "[3]; [4]", "value": 12.5, "unit": "µM"}, {"measurement": "MIC", "setting": "[3]; [5]", "value": 6.25, "unit": "µM"}, {"measurement": "MIC", "setting": "[3]; [6]", "value": 12.5, "unit": "µM"}, {"measurement": "MIC", "setting": "[3]; [7]", "value": 6.25, "unit": "µM"}, {"measurement": "MIC", "setting": "[3]; [8]", "value": 12.5, "unit": "µM"}, {"measurement": "MIC", "setting": "[3]; [9]", "value": 12.5, "unit": "µM"}, {"measurement": "MIC", "setting": "[3]; [10]", "value": 50.01, "unit": "µM"}, {"measurement": "MIC", "setting": "[3]; [11]", "value": 25.01, "unit": "µM"}, {"measurement": "MIC", "setting": "[3]; [12]", "value": 50.01, "unit": "µM"}, {"measurement": "MIC", "setting": "[3]; [13]", "value": 25.01, "unit": "µM"}, {"measurement": "MIC", "setting": "[3]; [14]", "value": 50.01, "unit": "µM"}, {"measurement": "MIC", "setting": "[3]; [15]", "value": 50.01, "unit": "µM"}, {"measurement": "MIC in (μg/ml)", "setting": "[3]; [16]", "value": "50.0 ± 12.9", "unit": "µg/mL"}]}]}
